# Measurements from US20210046106A1, “METHODS OF TREATING CANCER WITH ANDROGEN DEPRIVATION THERAPY IN COMBINATION WITH AN INHIBITOR OF THE SP1 TRANSCRIPTION FACTOR” (The Board of Trustees of the Leland Stanford Junior …, priority 2019, published 2021).
# Experiment: Phase 1 trial: Brief Pain Inventory
# Assay type: in vivo, human
# Details: 10 point scale
# Description: They also completed another pain inventory.
# The pain inventory captured four categories of pain as follows: worst pain in last 24 hours, least pain in last 24 ours, average pain and pain right now. Pain was scored using a 10 point scale, on which 0 was no pain and 10 was severe pain. […] A change of at least one point was felt to be clinically meaningful.
# [1] = 5.5 mg cohort (N=3), First follow-up
# [2] = 11 mg cohort (N=3), First follow-up
# [3] = 16.5 mg cohort (N=3), End of RT
# [4] = 16.5 mg cohort (N=3), First follow-up
# [5] = 33 mg cohort (N=5), First follow-up
# [6] = 49.5 mg cohort (N=1), End of RT
# [7] = 49.5 mg cohort (N=1), First follow-up
smiles,measurement,setting,value
"O=[Se](O)O [sodium selenite, Sodium selenite pentahydrate]","Average Pain, average change from baseline, Mean ± SD","5.5 mg cohort (N=3), End of RT",−2.5 ± 0.7
same,"Least Pain Last 24 Hrs, average change from baseline, Mean ± SD","5.5 mg cohort (N=3), End of RT",−1.5 ± 2.1
same,"Pain Right Now, average change from baseline, Mean ± SD","5.5 mg cohort (N=3), End of RT",−2 ± 0
same,"Worst Pain Last 24 Hrs, average change from baseline, Mean ± SD","5.5 mg cohort (N=3), End of RT",−4 ± 1.4
same,"Average Pain, average change from baseline, Mean ± SD",[1],−1.5 ± 0.7
same,"Least Pain Last 24 Hrs, average change from baseline, Mean ± SD",[1],−1.5 ± 1.4
same,"Pain Right Now, average change from baseline, Mean ± SD",[1],−2 ± 0
same,"Worst Pain Last 24 Hrs, average change from baseline, Mean ± SD",[1],−2.5 ± 0.7
same,"Average Pain, average change from baseline, Mean ± SD","11 mg cohort (N=3), End of RT",−2.3 ± 4.0
same,"Least Pain Last 24 Hrs, average change from baseline, Mean ± SD","11 mg cohort (N=3), End of RT",−2.7 ± 3.8
same,"Pain Right Now, average change from baseline, Mean ± SD","11 mg cohort (N=3), End of RT",1.7 ± 2.9
same,"Worst Pain Last 24 Hrs, average change from baseline, Mean ± SD","11 mg cohort (N=3), End of RT",−1.7 ± 1.5
same,"Average Pain, average change from baseline, Mean ± SD",[2],−0.7 ± 4.6
same,"Least Pain Last 24 Hrs, average change from baseline, Mean ± SD",[2],−1.3 ± 4.9
same,"Pain Right Now, average change from baseline, Mean ± SD",[2],1.7 ± 1.2
same,"Worst Pain Last 24 Hrs, average change from baseline, Mean ± SD",[2],−0.7 ± 5.0
same,"Average Pain, average change from baseline, Mean ± SD",[3],−1.5 ± 3.5
same,"Least Pain Last 24 Hrs, average change from baseline, Mean ± SD",[3],−1 ± 2.8
same,"Pain Right Now, average change from baseline, Mean ± SD",[3],−0.5 ± 2.1
same,"Worst Pain Last 24 Hrs, average change from baseline, Mean ± SD",[3],−1 ± 1.4
same,"Average Pain, average change from baseline, Mean ± SD",[4],−2 ± 2
same,"Least Pain Last 24 Hrs, average change from baseline, Mean ± SD",[4],−2.3 ± 2.1
same,"Pain Right Now, average change from baseline, Mean ± SD",[4],−2.7 ± 3.8
same,"Worst Pain Last 24 Hrs, average change from baseline, Mean ± SD",[4],−0.7 ± 0.6
same,"Average Pain, average change from baseline, Mean ± SD","33 mg cohort (N=5), End of RT",−1.2 ± 1.3
same,"Least Pain Last 24 Hrs, average change from baseline, Mean ± SD","33 mg cohort (N=5), End of RT",−0.2 ± 0.5
same,"Pain Right Now, average change from baseline, Mean ± SD","33 mg cohort (N=5), End of RT",−0.6 ± 1.1
same,"Worst Pain Last 24 Hrs, average change from baseline, Mean ± SD","33 mg cohort (N=5), End of RT",−1 ± 2
same,"Average Pain, average change from baseline, Mean ± SD",[5],−1 ± 1
same,"Least Pain Last 24 Hrs, average change from baseline, Mean ± SD",[5],0 ± 1
same,"Pain Right Now, average change from baseline, Mean ± SD",[5],−0.8 ± 1.3
same,"Worst Pain Last 24 Hrs, average change from baseline, Mean ± SD",[5],−2 ± 2
same,"Average Pain, average change from baseline, Mean ± SD",[6],−4.5 ± 0
same,"Least Pain Last 24 Hrs, average change from baseline, Mean ± SD",[6],−5 ± 0
same,"Pain Right Now, average change from baseline, Mean ± SD",[6],−4 ± 0
same,"Worst Pain Last 24 Hrs, average change from baseline, Mean ± SD",[6],−6 ± 0
same,"Average Pain, average change from baseline, Mean ± SD",[7],−8.5 ± 0
same,"Least Pain Last 24 Hrs, average change from baseline, Mean ± SD",[7],−9 ± 0
same,"Pain Right Now, average change from baseline, Mean ± SD",[7],−8 ± 0
same,"Worst Pain Last 24 Hrs, average change from baseline, Mean ± SD",[7],−10 ± 0
